# Measured values published in ChEMBL document CHEMBL3244089, “Structure-activity studies on hallucinogenic amphetamines using molecular connectivity” (1977).
# Species on record: Homo sapiens
# Assay: Hallucinogenic activity in human
# Assay type: functional
row,Compound,log(activity)
1,COc1ccc(OC)c(OC)c1CC(C)N (stereo not given),1.14
2,COc1cc(CC(C)N)c(OC)c(OC)c1 (stereo not given),0.63
3,COc1cc(CC(C)N)c(OC)c(OC)c1OC (stereo not given),0.86
4,CCCCc1cc(OC)c(CC(C)N)cc1OC (stereo not given),1.63
5,COc1ccc(CC(C)N)c2c1OCO2 (stereo not given),0.48
6,COc1cc2c(cc1CC(C)N)OCO2 (stereo not given),1.08
7,COc1c(CC(C)N)ccc2c1OCO2 (stereo not given),1
8,COc1cc(CC(C)N)c(OC)c2c1OCO2 (stereo not given),1.13
9,CCOc1cc(OC)c(CC(C)N)cc1OC (stereo not given),1.22
10,COc1c(CC(C)N)cc2c(c1OC)OCO2 (stereo not given),0.75
11,COc1cc(OC)c(OC)cc1CC(C)N (stereo not given),1.26
12,COc1cc(CC(C)N)c(OC)cc1Br (stereo not given) [BROLAMFETAMINE],2.71
13,COc1cc(CC(C)N)c(OC)cc1C (stereo not given) [DOM],1.89
14,COc1cc(CC(C)N)cc2c1OCO2 (stereo not given),0.43
15,COc1ccc(OC)c(CC(C)N)c1 (stereo not given),0.87
16,CCCCCc1cc(OC)c(CC(C)N)cc1OC (stereo not given),1.09
17,COc1ccc(CC(C)N)cc1 (stereo not given) [PARA-METHOXYAMPHETAMINE],0.59
18,CCCc1cc(OC)c(CC(C)N)cc1OC (stereo not given),1.94
19,CC(N)Cc1ccc2c(c1)OCO2 (stereo not given) [TENAMFETAMINE],0.41
20,COc1cc(CC(C)N)cc(OC)c1OC (stereo not given),0.37
21,COc1cc(OC)c(CC(C)N)c(OC)c1 (stereo not given),1.03
22,CCc1cc(OC)c(CC(C)N)cc1OC (stereo not given),2.01
23,COc1ccc(CC(C)N)c(OC)c1 (stereo not given),0.67

# Species on record: Homo sapiens
# Assay: Hallucinogenic activity in human relative to mescaline
# Assay type: functional
row,Compound,Ratio
1,COc1ccc(CC(C)N)c(OC)c1OC (stereo not given),2
2,COc1c(CCN)ccc2c1OCO2,5
3,COc1cc(OC)c(OC)cc1CCN,1
4,COc1ccc(CCN)cc1,1
5,COc1cc(CCN)c2c(c1)OCO2,1
6,COc1ccc(CCN)cc1OC,0.2
7,COc1c(CC(C)N)ccc2c1OCO2 (stereo not given),1
8,CN(C)CCc1c[nH]c2cc(O)ccc12,25
9,CCOc1cc(CC(C)N)c(OC)cc1OC (stereo not given),7
10,CN(C)CCc1c[nH]c2cccc(O)c12 [PSILOCIN],32
11,COc1ccc(CC(C)N)cc1OC (stereo not given),2
12,CCOc1cc2c(cc1CC(C)N)OCO2 (stereo not given),7
